Laboratory results taken from patent US20120213714A1, “Method and compositions as an adjunct for the prevention and treatment of periodontal disease” (priority 2011, published 2012).
Values after ≈ are worked out from the molar mass of the structure shown.

Test system: Porphyromonas gingivalis
Assay: Porphyromonas gingivalis overnight culture, colony count on blood agar vs control
Type: cell-based
Experimental: After the overnight culture, the medium was diluted 1:10000 times, 5 μl of the diluted culture was applied to blood agar plate and cultured overnight. Calculated the number of colonies on the plates and compared with the control group to obtain the percentage of inhibition.

IC50 (Porphyromonas gingivalis, overnight culture at 37° C, colonies counted vs control, read-out: IC50 / final concentration inhibiting 50% of Porphyromonas gingivalis growth): ~5 µg/mL (≈ 18 µM)
Structure (SMILES): CCCCC/C=C\C/C=C\C/C=C\CCCCC(=O)O [omega-6 fatty acids (GLA), γ-linolenic acid]
inhibition of growth of Porphyromonas gingivalis (final concentration of 1 μg/ml): significantly inhibit the growth
